Test results taken from the supplement of paper PMC11061612.
Each block holds one compound with its values, some of them ahead of it.

Legend:
Experiment in all cases: combination Emax (second highest fraction inhibited in the dose matrix, 72 h); higher = more inhibition; extreme values may be limits of the assay
[1] = test system: HPAC (Pancreatic Carcinoma)
Outline: (§1)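 Cell lines in DMEM/F12 or RPMI with 10% FBS were plated in 1536-well plates, held 24 hours at 37°C, 5% CO2, then given two-drug dose matrices for 72 hours (DMSO typically 0.2%). Viability was read by CellTiter-Glo 2.0 luminescence and scaled as inhibition from 0 (vehicle wells) to 1 (blank wells). Combination Emax is the second-highest inhibition in the matrix; Bliss excess is observed combination effect minus expected EA + EB − EA·EB, EA and EB being single-agent effects.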

[2] = test system: DOV13 (Ovarian Carcinoma)
Outline: as §1

[3] = test system: KARPAS-620 (Plasma Cell Myeloma)
Outline: as §1

[4] = test system: NCI-H1299 (Non-Small Cell Lung Carcinoma)
Outline: as §1

[5] = test system: CFPAC-1 (Pancreatic Carcinoma)
Outline: as §1

[6] = test system: MDA-MB-231 (Breast Carcinoma)
Outline: as §1

SN12C (Kidney Carcinoma) = test system: SN12C (Kidney Carcinoma)
Outline: as §1

[7] = test system: HCC2157 (Breast Carcinoma)
Outline: as §1

IGR-1 (Melanoma) = test system: IGR-1 (Melanoma)
Outline: as §1

[8] = test system: KM-H2 (Hodgkin's Lymphoma)
Outline: as §1

[9] = test system: KARPAS-1106P (B-Cell Non-Hodgkin's Lymphoma)
Outline: as §1

[10] = test system: IHH-4 (Thyroid Gland Carcinoma)
Outline: as §1

[11] = test system: SW756 (Cervical Carcinoma)
Outline: as §1

[12] = test system: SW780 (Bladder Carcinoma)
Outline: as §1

SK-N-FI (Neuroblastoma) = test system: SK-N-FI (Neuroblastoma)
Outline: as §1

DSH1 (Bladder Carcinoma) = test system: DSH1 (Bladder Carcinoma)
Outline: as §1

[13] = test system: MDA-MB-157 (Breast Carcinoma)
Outline: as §1

[14] = test system: SNU-C5 (Colorectal Carcinoma)
Outline: as §1

[15] = test system: SW1990 (Pancreatic Carcinoma)
Outline: as §1

CAL-78 (Chondrosarcoma) = test system: CAL-78 (Chondrosarcoma)
Outline: as §1

Compound: CS(=O)(=O)CCNCc1ccc(-c2ccc3ncnc(Nc4ccc(OCc5cccc(F)c5)c(Cl)c4)c3c2)o1 [Lapatinib] + C[C@@H](Oc1cc(-c2cnn(C3CCNCC3)c2)cnc1N)c1c(Cl)ccc(F)c1Cl [Crizotinib] (first compound max 10 µM, 7x7, partner max 10 µM)
combination Emax [1]: 0.929 | combination Emax [2]: 0.886 | combination Emax [3]: 0.873 | combination Emax [4]: 0.492 | combination Emax [5]: 0.963 | combination Emax [6]: 0.828 | combination Emax (SN12C (Kidney Carcinoma)): 0.216 | combination Emax [7]: 1 | combination Emax (IGR-1 (Melanoma)): 0.987 | combination Emax [8]: 0.931 | combination Emax [9]: 0.938 | combination Emax [10]: 0.907 | combination Emax [11]: 0.313 | combination Emax [12]: 0.489 | combination Emax (SK-N-FI (Neuroblastoma)): 0.601 | combination Emax (DSH1 (Bladder Carcinoma)): 1 | combination Emax [13]: 0.493 | combination Emax [14]: 0.764 | combination Emax [15]: 0.331 | combination Emax (CAL-78 (Chondrosarcoma)): 0.897

Compound: CC(=O)c1c(C)c2cnc(Nc3ccc(N4CCNCC4)cn3)nc2n(C2CCCC2)c1=O [Palbociclib] + CC1(C)CCC(CN2CCN(c3ccc(C(=O)NS(=O)(=O)c4ccc(NCC5CCOCC5)c([N+](=O)[O-])c4)c(Oc4cnc5[nH]ccc5c4)c3)CC2)=C(c2ccc(Cl)cc2)C1 [Venetoclax] (first compound max 10 µM, 7x7, partner max 1 µM)
combination Emax [1]: 0.204 | combination Emax [2]: 0.752 | combination Emax [3]: 0.842 | combination Emax [4]: 0.326 | combination Emax [5]: 0.311 | combination Emax [6]: 0.408 | combination Emax (SN12C (Kidney Carcinoma)): 0.0441 | combination Emax [7]: 0.601 | combination Emax (IGR-1 (Melanoma)): 0.764 | combination Emax [8]: 0.383 | combination Emax [9]: 0.599 | combination Emax [10]: 0.393 | combination Emax [11]: 0.0569 | combination Emax [12]: 0.108 | combination Emax (SK-N-FI (Neuroblastoma)): 0.213 | combination Emax (DSH1 (Bladder Carcinoma)): 0.439 | combination Emax [13]: 0.115 | combination Emax [14]: 0.468 | combination Emax [15]: 0.143 | combination Emax (CAL-78 (Chondrosarcoma)): 0.278

Compound: CC(=O)c1c(C)c2cnc(Nc3ccc(N4CCNCC4)cn3)nc2n(C2CCCC2)c1=O [Palbociclib] + Cn1cnc2c(F)c(Nc3ccc(Br)cc3Cl)c(C(=O)NOCCO)cc21 [Selumetinib] (first compound max 10 µM, 7x7, partner max 10 µM)
combination Emax [1]: 0.735 | combination Emax [2]: 0.467 | combination Emax [3]: 0.631 | combination Emax [4]: 0.463 | combination Emax [5]: 0.411 | combination Emax [6]: 0.64 | combination Emax (SN12C (Kidney Carcinoma)): 0.283 | combination Emax [7]: 0.394 | combination Emax (IGR-1 (Melanoma)): 0.919 | combination Emax [8]: 0.47 | combination Emax [9]: 0.601 | combination Emax [10]: 0.59 | combination Emax [11]: 0.343 | combination Emax [12]: 0.356 | combination Emax (SK-N-FI (Neuroblastoma)): 0.531 | combination Emax (DSH1 (Bladder Carcinoma)): 0.479 | combination Emax [13]: 0.147 | combination Emax [14]: 0.463 | combination Emax [15]: 0.334 | combination Emax (CAL-78 (Chondrosarcoma)): 0.331

Continued, in another order:

combination Emax [8]: 0.791
Compound: COc1cccc2c1C(=O)c1c(O)c3c(c(O)c1C2=O)C[C@@](O)(C(=O)CO)C[C@@H]3O[C@H]1C[C@H](N)[C@H](O)[C@H](C)O1 [Doxorubicin] + Cc1cc2ncnn2cc1Nc1ncc2c(n1)n(C1CCOCC1)c(=O)n2C [AZD7648] (first compound max 1 µM, 7x7, partner max 10 µM)
combination Emax [1]: 0.633 | combination Emax [2]: 0.914 | combination Emax [3]: 0.681 | combination Emax [4]: 0.66 | combination Emax [5]: 0.586 | combination Emax [6]: 0.786 | combination Emax (SN12C (Kidney Carcinoma)): 0.642 | combination Emax [7]: 0.925 | combination Emax (IGR-1 (Melanoma)): 0.697 | combination Emax [9]: 0.988 | combination Emax [10]: 0.951 | combination Emax [11]: 0.514 | combination Emax [12]: 0.235 | combination Emax (SK-N-FI (Neuroblastoma)): 0.373 | combination Emax (DSH1 (Bladder Carcinoma)): 0.86 | combination Emax [13]: 0.805 | combination Emax [14]: 0.724 | combination Emax [15]: 0.303 | combination Emax (CAL-78 (Chondrosarcoma)): 0.542

combination Emax [8]: 0.19
Compound: COc1cc2ncnc(Nc3ccc(F)c(Cl)c3)c2cc1OCCCN1CCOCC1 [Gefitinib] + CC(C)n1c(=O)n(C)c2cnc3cc(F)c(-c4ccc(OCCCN5CCCCC5)nc4)cc3c21 [AZD1390] (first compound max 10 µM, 7x7, partner max 0.3 µM)
combination Emax [1]: 0.222 | combination Emax [2]: 0.168 | combination Emax [3]: 0.141 | combination Emax [4]: 0.0669 | combination Emax [5]: 0.304 | combination Emax [6]: 0.193 | combination Emax (SN12C (Kidney Carcinoma)): 0.21 | combination Emax [7]: 0.723 | combination Emax (IGR-1 (Melanoma)): 0.635 | combination Emax [9]: 0.267 | combination Emax [10]: 0.0356 | combination Emax [11]: 0.1 | combination Emax [12]: 0.14 | combination Emax (SK-N-FI (Neuroblastoma)): 0.175 | combination Emax (DSH1 (Bladder Carcinoma)): 0.858 | combination Emax [13]: 0.125 | combination Emax [14]: 0.0876 | combination Emax [15]: 0.213 | combination Emax (CAL-78 (Chondrosarcoma)): 0.194

combination Emax [8]: 0.567
Compound: CC(=O)c1c(C)c2cnc(Nc3ccc(N4CCNCC4)cn3)nc2n(C2CCCC2)c1=O [Palbociclib] + Cc1c2c(nn1C)CSCc1cc(n(C)n1)CSc1cc(c3ccccc3c1)OCCCc1c(C(=O)O)n(C)c3c-2c(Cl)ccc13 [AZD5991] (first compound max 10 µM, 7x7, partner max 1 µM)
combination Emax [1]: 0.329 | combination Emax [2]: 0.752 | combination Emax [3]: 1 | combination Emax [4]: 0.478 | combination Emax [5]: 0.375 | combination Emax [6]: 0.455 | combination Emax (SN12C (Kidney Carcinoma)): 0.166 | combination Emax [7]: 1 | combination Emax (IGR-1 (Melanoma)): 0.818 | combination Emax [9]: 0.897 | combination Emax [10]: 0.411 | combination Emax [11]: 0.29 | combination Emax [12]: 0.223 | combination Emax (SK-N-FI (Neuroblastoma)): 0.557 | combination Emax (DSH1 (Bladder Carcinoma)): 0.523 | combination Emax [13]: 0.669 | combination Emax [14]: 0.35 | combination Emax [15]: 0.204 | combination Emax (CAL-78 (Chondrosarcoma)): 0.693

combination Emax [8]: 0.962
Compound: COc1cccc(OCCCN)c1-c1cc(Nc2cnc(C#N)cn2)n[nH]1 [Prexasertib] + C=CCn1c(=O)c2cnc(Nc3ccc(N4CCN(C)CC4)cc3)nc2n1-c1cccc(C(C)(C)O)n1 [AZD1775] (first compound max 1 µM, partner max 1 µM)
combination Emax [1]: 0.792 | combination Emax [2]: 0.971 | combination Emax [3]: 0.904 | combination Emax [4]: 0.799 | combination Emax [5]: 0.692 | combination Emax [6]: 0.9 | combination Emax (SN12C (Kidney Carcinoma)): 0.608 | combination Emax [7]: 1 | combination Emax (IGR-1 (Melanoma)): 0.708 | combination Emax [9]: 0.949 | combination Emax [10]: 0.99 | combination Emax [11]: 0.445 | combination Emax [12]: 0.303 | combination Emax (SK-N-FI (Neuroblastoma)): 0.862 | combination Emax (DSH1 (Bladder Carcinoma)): 0.84 | combination Emax [13]: 0.969 | combination Emax [14]: 0.886 | combination Emax [15]: 0.688 | combination Emax (CAL-78 (Chondrosarcoma)): 0.643
